Measurements taken from patent US20250176599A1, “FLAVOR COMPOSITION AND FOOD AND BEVERAGE” (TAKASAGO INTERNATIONAL CORPORATION, priority 2021, published 2025).

Legend:
[1] = Sensory evaluation of aqueous solution V containing 1-octen-3-ol 10 ppb: off-flavor intensity and masking component intensity; details: 1-octen-3-ol 10 ppb, average score 0-4
Procedure, shortened: (§1)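 8 trained panelists; degradant in ion-exchanged water + nootkatone. Off-flavor 0–4, relative (no masker = 4, water = 0); masker flavor 0–4, absolute.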

[2] = Sensory evaluation of aqueous solution VI containing 1,5-octadien-3-ol 10 ppb: off-flavor intensity and masking component intensity; details: aqueous solution VI, 1,5-octadien-3-ol 10 ppb, average score 0-4
Procedure, shortened: as §1

[3] = Sensory evaluation of aqueous solution II containing (E)-2-octenal 10 ppb: off-flavor intensity and masking component intensity; details: (E)-2-octenal 10 ppb, average score 0-4
Procedure, shortened: as §1

[4] = Sensory evaluation of aqueous solution I containing (E)-2-nonenal 1 ppb: off-flavor intensity and masking component intensity; details: (E)-2-nonenal 1 ppb, average score 0-4
Procedure, shortened: as §1

[5] = Sensory evaluation of aqueous solution III containing 1-octen-3-one 1 ppb: off-flavor intensity and masking component intensity; details: 1-octen-3-one 1 ppb, average score 0-4
Procedure, shortened: as §1

[6] = Sensory evaluation of aqueous solution IV containing 1,5-octadien-3-one 100 ppt: off-flavor intensity and masking component intensity; details: aqueous solution IV, 1,5-octadien-3-one 100 ppt, average score 0-4
Procedure, shortened: as §1

[7] = Overall conclusion of the sensory evaluation across aqueous solutions I to VI
Procedure, shortened: as §1

## C/C=C/C(=O)C1=C(C)C=CCC1(C)C [β-Damascenone, β-damascenone]
[1]; 0.001 ppt added
  Off-Flavor Intensity: 3.4 points
[1]; 0.01 ppt added
  Off-Flavor Intensity: 3.1 points
[1]; 0.1 ppt added
  Off-Flavor Intensity: 2.6 points
[1]; 1 ppb added
  Off-Flavor Intensity: 1.5 points
[1]; 1 ppt added
  Off-Flavor Intensity: 2.4 points
[1]; 10 ppb added
  Off-Flavor Intensity: 1.1 points
[1]; 10 ppt added
  Off-Flavor Intensity: 2.4 points
[1]; 100 ppb added
  Off-Flavor Intensity: 0.8 points
[1]; 100 ppt added
  Off-Flavor Intensity: 2.0 points
[2]; 0.001 ppt added
  Off-Flavor Intensity: 2.6 points
[2]; 0.01 ppt added
  Off-Flavor Intensity: 2.1 points
[2]; 0.1 ppt added
  Off-Flavor Intensity: 1.9 points
[2]; 1 ppb added
  Off-Flavor Intensity: 0.6 points
[2]; 1 ppt added
  Off-Flavor Intensity: 1.7 points
[2]; 10 ppb added
  Off-Flavor Intensity: 0.2 points
[2]; 10 ppt added
  Off-Flavor Intensity: 1.3 points
[2]; 100 ppb added
  Off-Flavor Intensity: 0.0 points
[2]; 100 ppt added
  Off-Flavor Intensity: 0.9 points
[3]; 0.001 ppt added
  Off-Flavor Intensity: 2.9 points
[3]; 0.01 ppt added
  Off-Flavor Intensity: 2.8 points
[3]; 0.1 ppt added
  Off-Flavor Intensity: 2.4 points
[3]; 1 ppb added
  Off-Flavor Intensity: 1.1 points
[3]; 1 ppt added
  Off-Flavor Intensity: 2.1 points
[3]; 10 ppb added
  Off-Flavor Intensity: 0.9 points
[3]; 10 ppt added
  Off-Flavor Intensity: 1.9 points
[3]; 100 ppb added
  Off-Flavor Intensity: 0.8 points
[3]; 100 ppt added
  Off-Flavor Intensity: 1.4 points
[4]; 0.001 ppt added
  Off-Flavor Intensity: 3.5 points
[4]; 0.01 ppt added
  Off-Flavor Intensity: 3.5 points
[4]; 0.1 ppt added
  Off-Flavor Intensity: 2.9 points
[4]; 1 ppb added
  Off-Flavor Intensity: 1.8 points
[4]; 1 ppt added
  Off-Flavor Intensity: 2.5 points
[4]; 10 ppb added
  Off-Flavor Intensity: 1.4 points
[4]; 10 ppt added
  Off-Flavor Intensity: 2.4 points
[4]; 100 ppb added
  Off-Flavor Intensity: 1.0 points
[4]; 100 ppt added
  Off-Flavor Intensity: 2.3 points
[5]; 0.001 ppt added
  Off-Flavor Intensity: 3.6 points
[5]; 0.01 ppt added
  Off-Flavor Intensity: 3.6 points
[5]; 0.1 ppt added
  Off-Flavor Intensity: 3.3 points
[5]; 1 ppb added
  Off-Flavor Intensity: 1.9 points
[5]; 1 ppt added
  Off-Flavor Intensity: 2.9 points
[5]; 10 ppb added
  Off-Flavor Intensity: 1.4 points
[5]; 10 ppt added
  Off-Flavor Intensity: 2.5 points
[5]; 100 ppb added
  Off-Flavor Intensity: 1.3 points
[5]; 100 ppt added
  Off-Flavor Intensity: 2.3 points
[6]; 0.001 ppt added
  Off-Flavor Intensity: 3.5 points
[6]; 0.01 ppt added
  Off-Flavor Intensity: 3.4 points
[6]; 0.1 ppt added
  Off-Flavor Intensity: 3.3 points
[6]; 1 ppb added
  Off-Flavor Intensity: 2.3 points
[6]; 1 ppt added
  Off-Flavor Intensity: 3.1 points
[6]; 10 ppb added
  Off-Flavor Intensity: 1.6 points
[6]; 10 ppt added
  Off-Flavor Intensity: 2.8 points
[6]; 100 ppb added
  Off-Flavor Intensity: 1.6 points
[6]; 100 ppt added
  Off-Flavor Intensity: 2.5 points
[7]
  concentration that masks the off-flavor and does not affect the flavor of the food and/or beverage itself, lower limit: ≥ 0.001 ppt
  concentration that masks the off-flavor and does not affect the flavor of the food and/or beverage itself, upper limit: ≤ 10 ppb
